# Results as given in patent publication US5885782A, “Synthetic antibiotics” (priority 1997, dated 1999).
# What was measured:
# [1] = system: Fusarum oxysporum f. sp. lycopersici race 1, strain RMI; assay: Checkerboard combination of peptide with antifungal agent (Limpel method), Fusarium; type: cell-based, Fusarium oxysporum; design: key to Expected Inhibition (Limpel formula): expected % inhibition, Ec = X + Y - XY/100 (Limpel)
# Description: (§1) Antimicrobial peptides were mixed with known antifungal compounds according to the checkerboard method of Eliopoulos and Moellering, 1991 and the effect of these mixtures was determined.
# (§2) The checkerboard method requires serial dilutions of two antimicrobial compounds in concentration ranges spanning the minimal inhibitory concentrations (MICs) of the compounds. Synergism, antagonism, or additivity of the drug combinations was by measured by determining the antimicrobial effect of the various dilutions of the two drugs. Synergism existed when the antimicrobial effect of a mixture was greater than the sum of the independent antimicrobial effects of its combined components. Additivity was indicated when the antimicrobial effect of a drug combination was simply the sum of the independent antimicrobial effects. Antagonism existed when the antimicrobial effect of a mixture of drugs was less than the sum of the independent antimicrobial effects of the separate drugs.
# Frozen glycerol stocks of F. oxysporum f. sp. lycopersici microconidia were used for the bioassays. Microconidia or spores were thawed on ice, washed 2× in PDB, and diluted in 2× PDB to obtain the appropriate inoculum concentration for the assay. The 2× PDB was employed for the dilutions to obtain a final concentration of I× PDB in each test well. Microtiter plates were incubated without shaking, in the dark, at 250 C. Absorbance readings were recorded at 24 hr intervals for 72 h. To follow growth in the microtiter plates, an EMAX PRECISION MICROPLATE READER (Molecular Devices Corp., Menlo Park, Calif.) attached to a HEWLETT-PACKARD THINK-JET (Hewlett-Packard Company, Vancouver, Wash.) printer was used to obtain the absorbance (at 595 run) readings. All test combinations were performed in triplicate. Sterile, disposable, flat bottom, polystyrene, 96~well (with lid) microtiter plates (Corning Glass Works, Scientific Products Division, Corning, N.Y.) were used to conduct the assays. The initial concentration of peptide FRLKFH-NH2 (Seq. ID No.34), peptide FRLKFHI-NH2 (Seq. ID No.40), nystatin (5.13 units/ug), and miconazole used in the assay series were 26, 60, 88, and 60 ug/ml, respectively. The checkerboard was setup as described by Eliopoulos and Moellering, 1991. Once the checkerboard mixtures were prepared 50 ul of inoculum […] was added to each of the wells. F. oxysporum f. sp. lycopersici microconidia were produced using FLC medium. Esposito, R. and Fletcher, A. M. 1961. A 4 mm square of an actively growing culture was taken from PDA to 50 ml of FLC broth in a sterile 250 ml screwcap flask. The culture was incubated with shaking […] at 250 C. After 96 h, the slurry of mycelia and microconidia was filtered twice through 3 layers of sterile cheesecloth to obtain the microconidial suspension. The microconidial suspension was adjusted to a concentration of 1-5×10^7 microconidial/ml using a Brightlme hemacytometer (Hausser Scientific, Horsham, Pa.) and stored frozen in I ml aliquots in 20% sterile glycerol at -80C.
# (§3) Synergism between known antifungal compounds and antifungal peptides was also studied using the method of Limpel as described by Richer. Richer, D. L. 1987. The methodology of Limpel is described by the equation: […]
# (§4) Where Ec is the expected additive effect of two antifungal agents, X is the observed percentage inhibition of the test organism when antifungal agent A is applied alone at the rate used in the mixture, and Y is the observed percentage inhibition of the test organism when antifungal agent B is used alone at the rate used in the mixture. […] Richer, D. L. 1987.
# (§5) Experimental studies were set up using the checkerboard method as described by Eliopoulos and Moellering, 1991. The observed inhibitory effects of the antifungal agent and peptide combinations were measured as described above and compared with Ec as calculated from the Limpel formula.
# Aspergillus fumigatus = assay: Checkerboard combination of peptide with antifungal agent (Limpel method), Aspergillus fumigatus; type: cell-based
# Description: as §1, §2, §3, §4, §5
# Aspergillus paraciticus = assay: Checkerboard combination of peptide with antifungal agent (Limpel method), Aspergillus paraciticus; type: cell-based
# Description: as §1, §2, §3, §4, §5
# [2] = Nystatin 0.3 ug/ml, Peptide 0 ug/ml
# [3] = Nystatin 0.6 ug/ml, Peptide 0 ug/ml
# [4] = Nystatin 1.3 ug/ml, Peptide 0 ug/ml
# [5] = Nystatin 2.5 ug/ml, Peptide 0 ug/ml
# [6] = Nystatin 5 ug/ml, Peptide 0 ug/ml
# [7] = Nystatin 10 ug/ml, Peptide 0 ug/ml
# [8] = Nystatin 20 ug/ml, Peptide 0 ug/ml
# [9] = Nystatin 0 ug/ml, Peptide 0.6 ug/ml
# [10] = Nystatin 0 ug/ml, Peptide 1.3 ug/ml
# [11] = Nystatin 0 ug/ml, Peptide 2.5 ug/ml
# [12] = Nystatin 0 ug/ml, Peptide 5 ug/ml
molecule,measurement,setting,value
"C[C@@H]1[C@H](O)[C@@H](C)/C=C/C=C/CC/C=C/C=C/C=C/C=C/C(O[C@H]2O[C@H](C)[C@@H](O)[C@H](N)[C@@H]2O)CC2O[C@](O)(CC(O)C(O)CCC(O)CC(O)CC(O)CC(=O)O[C@H]1C)CC(O)C2C(=O)O (stereo partly drawn) [Nystatin, nystatin]",Expected Inhibition (Limpel formula),[1]; [2],6.0
same,Observed Inhibition (percentage inhibition),[1]; [2],6.0
same,Expected Inhibition (Limpel formula),[1]; [3],3.0
same,Observed Inhibition (percentage inhibition),[1]; [3],3.0
same,Expected Inhibition (Limpel formula),[1]; [4],4.0
same,Observed Inhibition (percentage inhibition),[1]; [4],4.0
same,Expected Inhibition (Limpel formula),[1]; [5],1.0
same,Observed Inhibition (percentage inhibition),[1]; [5],1.0
same,Expected Inhibition (Limpel formula),[1]; [6],16.0
same,Observed Inhibition (percentage inhibition),[1]; [6],16.0
same,Expected Inhibition (Limpel formula),[1]; [7],100.0
same,Observed Inhibition (percentage inhibition),[1]; [7],100.0
same,Expected Inhibition (Limpel formula),[1]; [8],100.0
same,Observed Inhibition (percentage inhibition),[1]; [8],100.0
FRLKFH: D-amino acid hexapeptide FRLKFH-NH2,interaction with amphotericin B (observed vs expected inhibition),"[1]; peptide 5.0-10.0 ug/ml, amphotericin B 0.3-2.0 ug/ml, Fusarium oxysporum, Table XVI",synergism
same,interaction with nystatin (observed vs expected inhibition),"Aspergillus fumigatus; peptide 4.4-7.5 ug/ml, nystatin 0.6-2.5 ug/ml, Table XXII",synergism
same,interaction with miconazole (observed vs expected inhibition),"Aspergillus fumigatus; peptide 17.5-70 ug/ml, miconazole 0.3-2.0 ug/ml, Table XX",synergism
FRLKFHF [D-amino acid heptapeptide FRLKFHF-NH2],interaction with amphotericin B (observed vs expected inhibition),"Aspergillus paraciticus; peptide 2.5-10 ug/ml, amphotericin B 0.2-0.6 ug/ml, Table XXIV",synergism
same,interaction with nystatin (observed vs expected inhibition),"Aspergillus paraciticus; peptide 2.5-10 ug/ml, nystatin 0.3-5.0 ug/ml, Table XXVI",synergism
same,interaction with fluconazole (observed vs expected inhibition),"Aspergillus paraciticus; peptide 2.5-20 ug/ml, fluconazole 7.5-120 ug/ml, Table XXV",synergism
same,Expected Inhibition (Limpel formula),[1]; [9],2.0
same,Observed Inhibition (percentage inhibition),[1]; [9],2.0
same,Expected Inhibition (Limpel formula),[1]; [10],0.0
same,Observed Inhibition (percentage inhibition),[1]; [10],0.0
same,Expected Inhibition (Limpel formula),[1]; [11],13.0
same,Observed Inhibition (percentage inhibition),[1]; [11],13.0
same,Expected Inhibition (Limpel formula),[1]; [12],29.0
same,Observed Inhibition (percentage inhibition),[1]; [12],29.0
same,interaction with nystatin (observed vs expected inhibition),"[1]; nystatin 0.3-5 ug/ml, peptide 0.6-5 ug/ml, Fusarium oxysporum, Table XIV",synergism
same,interaction with miconazole (observed vs expected inhibition),"[1]; peptide 1.3-5.0 ug/ml, miconazole 0.6-20 ug/ml, Fusarium oxysporum, Table XVII",synergism
same,interaction with fluconazole (observed vs expected inhibition),"Aspergillus fumigatus; peptide 1.3-20.0 ug/ml, fluconazole 29-230 ug/ml, Table XVIII",synergism
FRLKFHI [D- amino acid heptapeptide FRLKFHI-NH2],interaction with miconazole (observed vs expected inhibition),"Aspergillus paraciticus; peptide 3.8-60 ug/ml, miconazole 0.2-1.3 ug/ml, Table XXIII",synergism
same,interaction with amphotericin B (observed vs expected inhibition),"[1]; peptide 0.9-7.0 ug/ml, amphotericin B 0.9-7.5 ug/ml, Fusarium oxysporum, Table XV",synergism
same,interaction with fluconazole (observed vs expected inhibition),"[1]; peptide 1.3-20 ug/ml, fluconazole 28.7-229.5 ug/ml, Fusarium oxysporum, Table XXVII",synergism
same,interaction with miconazole (observed vs expected inhibition),"Aspergillus fumigatus; peptide 1.340 ug/ml, miconazole 0.5-2.0 ug/ml, Table XIX",synergism
same,interaction with fluconazole (observed vs expected inhibition),"Aspergillus fumigatus; peptide 1.3-20 ug/ml, fluconazole 28.7-229.5 ug/ml, Table XXI",synergism
